Source: article PMC9182086, “Identification of New Non-BBB Permeable Tryptophan Hydroxylase Inhibitors for Treating Obesity and Fatty Liver Disease” (Molecules, 2022)

Key:
CYP1A2 = target: T1, CYP1A2 (Homo sapiens, UniProt P05177); test: CYP inhibition assay (P450-Glo) CYP1A2; type: in vitro ADME; settings: P450-Glo CYP1A2 Screening System (CYP enzyme), read-out: CYP inhibition 1A2
T1 construct: purchased Promega Corp. V9770
T1 sequence (P05177 1-516): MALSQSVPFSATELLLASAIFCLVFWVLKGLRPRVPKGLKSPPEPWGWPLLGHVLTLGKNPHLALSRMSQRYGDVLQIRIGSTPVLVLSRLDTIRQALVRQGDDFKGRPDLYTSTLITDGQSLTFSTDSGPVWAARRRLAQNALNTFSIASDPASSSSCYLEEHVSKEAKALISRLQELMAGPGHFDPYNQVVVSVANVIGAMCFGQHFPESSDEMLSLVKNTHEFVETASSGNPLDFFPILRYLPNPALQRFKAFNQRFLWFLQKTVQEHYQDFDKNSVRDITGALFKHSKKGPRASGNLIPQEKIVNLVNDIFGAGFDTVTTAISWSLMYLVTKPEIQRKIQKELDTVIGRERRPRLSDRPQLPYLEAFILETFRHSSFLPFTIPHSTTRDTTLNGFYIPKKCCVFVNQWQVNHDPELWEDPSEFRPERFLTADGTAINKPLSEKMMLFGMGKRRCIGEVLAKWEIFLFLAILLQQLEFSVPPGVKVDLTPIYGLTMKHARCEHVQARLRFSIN
Text: (§1) Five major screening systems: P450-Glo CYP1A2 Screening System (Catalog# V9770), P450-Glo CYP2C9 Screening System (Catalog# V9790), P450-Glo CYP2C19 (Catalog# V9880), P450-Glo CYP 2D6 (Catalog# V9890), and P450-Glo CYP3A4 (Catalog# V9920) were attained from Promega Corp. (Madison, WI). α-naphthoflavone, sulfaphenazole, amitriptyline, quinidine, and ketoconazole were identified as positive control inhibitors for CYP1A2, CYP2C9, CYP2C19, CYP2D6, and CYP3A4, respectively. The CYP enzyme and substrate were combined in a potassium phosphate (KPO4) buffer and the reaction is initiated by adding an NADPH regenerating system. The volume of the mixture (12.5 μL in a 96-well plate) was combined with an equal volume of test compound solution and positive control inhibitor (12.5 μL added to make the volume 25 μL). The reaction of the NADPH regeneration system was initiated by adding a 2× concentration of NADPH solution. Then an equal volume of luciferin detection reagent was added. The plates were incubated at room temperature for 20 min and the luminescence signal was measured by a microplate reader device.

CYP3A4 = target: T2, CYP3A4 (Homo sapiens, UniProt P08684); test: CYP inhibition assay (P450-Glo) CYP3A4; type: in vitro ADME; settings: P450-Glo CYP3A4 Screening System (CYP enzyme), read-out: CYP inhibition 3A4
T2 construct: purchased Promega Corp. V9920
T2 sequence (P08684 whole entry): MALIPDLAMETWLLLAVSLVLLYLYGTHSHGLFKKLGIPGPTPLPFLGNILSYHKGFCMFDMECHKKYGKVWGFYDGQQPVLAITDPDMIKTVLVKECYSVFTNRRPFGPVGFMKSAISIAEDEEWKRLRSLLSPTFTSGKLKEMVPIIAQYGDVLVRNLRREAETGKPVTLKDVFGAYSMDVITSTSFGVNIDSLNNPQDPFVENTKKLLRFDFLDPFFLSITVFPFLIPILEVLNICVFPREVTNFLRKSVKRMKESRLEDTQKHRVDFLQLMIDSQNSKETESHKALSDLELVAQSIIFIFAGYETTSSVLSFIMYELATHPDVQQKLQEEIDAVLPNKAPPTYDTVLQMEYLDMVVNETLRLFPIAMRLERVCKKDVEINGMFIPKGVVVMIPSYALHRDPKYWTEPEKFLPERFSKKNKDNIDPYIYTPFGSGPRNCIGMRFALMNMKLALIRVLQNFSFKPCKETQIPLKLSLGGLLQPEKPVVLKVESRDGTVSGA
Text: as §1

[1] = Blood brain barrier PK: plasma and brain levels after iv dosing; type: in vivo, male SD rats; settings: male rats, 5 mg/kg iv; for BBB penetration: brain level: BQL = below the quantification limit
Experimental: The biodistribution study in plasma and brain tissue was performed using eight-week-old male SD rats (Orient Bio Inc., Seongnam, Korea). Dosing vehicles were composed of DMSO, PEG400, and deionized water (5:40:55, v/v/v). 18i compound was administrated at a dose of 5 mg/kg via intravenous (I.V.). […] Brain tissues were rinsed with saline and four volumes of acetronitrile containing disopyramide were added as an internal standard for LC-MS/MS analysis. The brain samples were homogenized using a sonicator (IKA Labortechnik T10 basic ULTRA-TURRAX, Staufen, Germany) for 10 s on the ice. The plasma samples were added to nine volumes of acetonitrile and vortexed for 5 min. The samples were centrifuged (15,000 RPM, 4 °C, 10 min). The supernatant was collected and analyzed by an LC-MS/MS system.
The LC-MS/MS analysis was performed on an Agilent 1200 series (Agilent Technologies, Santa Clara, CA, USA) with an API 4000 linear ion trap triple quadruple mass spectrometer (AB Sciex, CA, USA). The chromatographic separation of the drug was carried out using a kinetex column (100 × 2.1 mm, 3 μm, Phenomenex, CA USA) with a SecurityGuard C18 guard column (4 mm × 2.0 mm i.d., Phenomenex). The flow rate was 300 µL/min with a mobile phase consisting of 0.1% formic acid in water (eluent A) and 0.1% formic acid in acetonitrile (eluent B) by linear gradient condition as follows: starting with 0 to 0.3 min, B: 5%; 0.3 to 2.5 min, B: 5 → 95%; 2.5 to 2.9 min, B: 95%; 2.9 to 3.0 min, B: 95 → 5%, and then re-equilibrated to initial conditions until 3 min. The total run time was 6 min and the injection volume of 5 μL.

inhibition at 10 µM (CYP1A2): 0.1%
inhibition at 10 µM (CYP3A4): 45.3%
concentration at 0.5 h ([1]; SD, rat, plasma, 0.5 h, read-out: BBB penetration: plasma level): 2270 ng/mL
concentration at 3 h ([1]; SD, rat, plasma, 3 h, read-out: BBB penetration: plasma level): 1440 ng/mL
BBB penetration: plasma level ([1]; 0.5 h): Plasma: 0.5 h: 2266 ng/mL
BBB penetration: brain level ([1]; 0.5 h): Brain: 0.5 h: BQL ^a
BBB penetration: plasma level ([1]; 3 h): 3 h: 1439 ng/mL
BBB penetration: brain level ([1]; 3 h): 3 h: BQL
level below the quantification limit (text says plasma) ([1]; time not stated): < 7 ng/mL
SMILES: Cc1ccn(-c2cc(Cl)ccc2[C@@H](Oc2ncnc3c(-c4ccc(C[C@H](N)C(=O)O)cc4)csc23)C(F)(F)F)n1.Cl [Compound 18i, (S)-2-amino-3-(4-(4-((R)-1-(4-chloro-2-(3-methyl-1H-pyrazol-1-yl)phenyl)-2,2,2-trifluoroethoxy)thieno[3,2-d]pyrimidin-7-yl)phenyl)propanoic acid hydrochloride]
